For 18 compounds, inhibition and EC50 results are on record in patent publication US20150344407A1, “FENDILINE DERIVATIVES AND METHODS OF USE THEREOF” (THE BOARD OF REGENTS OF THE UNIVERSITY OF TEXAS SYSTEM, priority 2012, published 2015).

Assay [1] relates to phosphorylated ERK, a protein activated downstream of K-ras. Briefly: Western immunoblotting for pERK (inhibition of ERK activation). Conditions: Canis lupus familiaris; 4 μM compound, 48 hours, MDCK cells stably expressing GFP-tagged K-rasG12V; whole cell lysates; normalized to vehicle-treated control; read-out: % Inhibition of ERK activation when treated with 4 μM compound. It is filed as cell-based, canine. On the procedure:
(§1) To determine the effect of compounds on localization of K-ras, Mardine Darby canine kidney epithelial (MDCK) cells stably expressing GFP-tagged K-rasG12V (oncogenic K-ras) grown on cover slips were treated with vehicle or compound (4 μM) for 48 hours and fixed with 4% paraformaldehyde. The coverslips were mounted in Mowiol and imaged by confocal microscopy (Nikon A1) using a 60× objective. Images were analyzed by ImageJ software. Densitometric analysis was performed on images to determine the degree of K-ras mislocalization. To determine the effect of compounds on K-ras function, MDCK cells stably expressing GFP-tagged K-rasG12V were treated with vehicle or compound (4 μM) for 48 hours. Following treatment, whole cell lysates were prepared and subjected SDS-PAGE and western blotting to quantify the level of phosphorylated ERK, a protein activated downstream of K-ras. All calculations were normalized to vehicle-treated control.
Western Immunoblotting for pERK: 2×10^5 cells/well were seeded in 6-well cell culture plates. 24 h after seeding, fresh medium containing 1% vehicle (DMSO) or 4 μM test compound (1:100 dilution, such that DMSO was 1%) was added and incubated for 48 h. Cells were lysed in Buffer B (50 mM Tris [pH 7.5], 75 mM NaCl, 25 mM NaF, 5 mM MgCl2, 5 mM EGTA, 1 mM dithiothreitol, 100 μM NaVO4, 1% Nonidet P-40 plus protease inhibitors). SDS-PAGE and immunoblotting with the anti-phospho-p44/42 mitogen-activated protein kinase (MAPK) (ERK1/2) antibody was performed using 20 μg of each whole cell lysate. Signal was detected by enhanced chemiluminescence (SuperSignal; Pierce, Thermo Fisher Scientific, Rockford, Ill.) and imaged by FluorChemQ (Alpha Inotech, San Leandro, Calif.). Quantification of intensities was performed using FluorChemQ software. Results were normalized to vehicle-treated control.
(In general: A western blot detects proteins with antibodies after separation by electrophoresis.)

For assay [2], the target named is T1, GFP-tagged K-rasG12V (oncogenic K-ras) in MDCK cells (Homo sapiens, UniProt P01116, G12V).
T1 construct: mGFP-tagged full length oncogenic mutant K-Ras (GFP-K-RasG12V); expressed in transfected cells
Briefly: K-ras mislocalization, confocal fluorescence microscopy with densitometric analysis. Conditions: 4 μM compound, 48 hours, MDCK cells stably expressing GFP-tagged K-rasG12V; normalized to vehicle-treated control; read-out: % Mislocalization of K-ras when treated with 4 μM compound. It is filed as cell-based, canine. On the procedure:
FIGS. 1 & 2—Representative images showing degree of K-ras mislocalization with compound treatment (images corresponds with column 3 of Table 2). MDCK cells stably expressing GFP-tagged K-rasG12V were treated with vehicle or compound (4 μM) for 48 hours and fixed with 4% paraformaldehyde. The coverslips were mounted in Mowiol and imaged by confocal microscopy (Nikon A1) using a 60× objective. The number above each image corresponds the fendiline derivative code.
as §1
Fluorescence microscopy: 2×10^5 or 1×10^5 cells/well were seeded in 6- or 12-well cell culture plates, respectively, containing glass coverslips. 24 h after seeding, fresh medium containing 1% vehicle (Dimethyl sulfoxide, DMSO) or 4 μM test compound (1:100 dilution, such that DMSO was 1%) was added and incubated for 48 h, following which the cells were fixed with 4% paraformaldehyde and coverslips were mounted in Mowiol. Cells were imaged in the GFP wavelength (488 nm) using a confocal microscope (Nikon A1) with 60× objective. Images were saved in tagged imaged file format (tiff) and analyzed by ImageJ software. The densitometric ratio of plasma membrane localized K-Ras versus total K-Ras was calculated and normalized to vehicle-treated control.

The test system of the next assay is MPanc-96 cells. Put plainly: Proliferation assay, pancreatic cancer cell line MPanc-96. Type of assay: cell-based. Conditions: MPANC96; 72 h, CyQUANT; oncogenic mutant K-Ras. The text has this:
(§2) FIG. 5A-5E—Concentration-response curves of 42, 68, 70, 72 and 73 on proliferation of five pancreatic cancer cell lines. BxPC-3 expresses wild type K-Ras, whereas the others express oncogenic mutant K-Ras. […] EC50 values for their inhibitory effect are tabulated. ND means that the EC50 value could not be determined within the dose range tested. See also Table 5.
(§3) Cell lines: Madine Darby Canine Kidney epithelial cells (MDCK) stably co-expressing mGFP-tagged full length oncogenic mutant K-Ras (GFP-K-RasG12V) and mCherry-tagged to the amino acids 179-189 of H-RasC181S, C184S (mCherry-CAAX, localizes primarily to endomembranes) were grown in DMEM-high glucose/sodium pyruvate/10% FBS. The medium was supplemented with 1× Penicillin/Streptomycin for fluorescence microscopy assays, to avoid any microbial contamination from the test compounds added. KLE and Hec50 cells were maintained in DMEM-F-12 medium supplemented with 10% FBS. Hec-1A and Hec-1B cells were grown in McCoy's 5a medium supplemented with 10% FBS. ESS-1 cells were grown in RPMI 1640 medium supplemented with 20% FBS. MPanc96 cells were grown in DMEM supplemented with 10% FBS, MiaPaCa-2 cells in DMEM supplemented with 10% FBS and 2.5% horse serum and all other cell lines were grown in RPMI 1640 supplemented with 10% FBS. All cancer cell media were supplemented with 1× Penicillin/Streptomycin. All cell lines were grown at 37° C. with 5% CO2.
(§4) Proliferation Assay: Cells were seeded in 96-well plates. After 24 h, fresh growth medium supplemented with 0.1% vehicle (DMSO), or various concentrations of drugs was added and cells were grown for 72 h. Cell numbers were quantified using the CyQUANT® Cell Proliferation Assay Kit (Life Technologies), according to the manufacturer's protocol. Fluorescence measurement was used as a measure of live cell number.
(§5) Based upon the concentration-response curves of five different compounds (42, 68, 70, 72, and 73) were tested for their effects on cell proliferation of five different pancreatic cell lines. These experiments were carried out as described in the Methods and Materials section.

For a further assay, the system named is HPAC cells. Put plainly: Proliferation assay, pancreatic cancer cell line HPAC. Type of assay: cell-based. Conditions: Homo sapiens, 72 h, CyQUANT, oncogenic mutant K-Ras.
From the text: as §2, §3, §4, §5

Another assay has as its system Hec50 cells. Briefly: Proliferation assay, endometrial cancer cell line Hec50. It is filed as cell-based. Conditions: 72 h, CyQUANT; Hec50 expresses oncogenic mutant K-Ras.
From the text: (§6) FIG. 4A-4E—Concentration-response curves of 42, 68, 70, 72 and 73 on proliferation of five endometrial cancer cell lines. KLE and ESS-1 express wild type K-Ras and Hec-1A, Hec-1B and Hec50 express oncogenic mutant K-Ras. […] EC50 values for their inhibitory effect are tabulated. ND means that the EC50 value could not be determined within the dose range tested. See also Table 4.
as §3, §4
(§7) Based upon the concentration-response curves of five different compounds (42, 68, 70, 72, and 73) were tested for their effects on cell proliferation of five different endometrial cell lines. These experiments were carried out as described in the Methods and Materials section.

The subject of another assay is MOH cells. Briefly: Proliferation assay, pancreatic cancer cell line MOH. As to conditions: 72 h, CyQUANT, oncogenic mutant K-Ras. Type of assay: cell-based.
From the text: as §2, §3, §4, §5

In the next assay the test system is MiaPaCa-2 cells. Put plainly: Proliferation assay, pancreatic cancer cell line MiaPaCa-2. It is filed as cell-based. As to conditions: Homo sapiens, MIA PaCa-2; 72 h, CyQUANT; oncogenic mutant K-Ras.
From the text: as §2, §3, §4, §5

The subject of the next assay is Hec-1A cells. Briefly: Proliferation assay, endometrial cancer cell line Hec-1A. Type of assay: cell-based. Conditions: Homo sapiens; 72 h, CyQUANT; Hec-1A expresses oncogenic mutant K-Ras.
From the text: as §6, §3, §4, §7

The term pEC50 denotes the negative decadic logarithm of the EC50, by convention in mol/L.

The structures appear in SMILES notation. pEC50: −log10 of the molar value. Structures can show the parent of a compound that is named as a salt.

T1 sequence (P01116 1-188 isoform P01116-2 G12V): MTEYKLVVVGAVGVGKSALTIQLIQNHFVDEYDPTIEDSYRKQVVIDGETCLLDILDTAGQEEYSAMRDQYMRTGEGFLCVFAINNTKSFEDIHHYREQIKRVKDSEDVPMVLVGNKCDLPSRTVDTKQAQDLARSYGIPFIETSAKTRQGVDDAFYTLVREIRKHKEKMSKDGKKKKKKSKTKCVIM

For `C[C@@H](NC/C=C/c1ccc(-c2ccccc2)cc1)c1ccccc1` [Compound 31, (R,E)-3-([1,1′-biphenyl]-4-yl)-N-(1-phenylethyl)prop-2-en-1-amine], the inhibition at 4 µM in assay [1] came to 35.6%; in assay [2], 6.36%.

As for `C[C@H](NC/C=C/c1ccccc1)c1ccccc1` [Compound 19, (S,E)-3-phenyl-N-(1-phenylethyl)prop-2-en-1-amine], the inhibition at 4 µM in assay [1] was 11.3%; in assay [2], 16.5%.

As for `COc1ccc([C@@H](C)N(CC=C(c2ccccc2)c2ccccc2)CC=C(c2ccccc2)c2ccccc2)cc1` [Compound 68, (R)-N-(3,3-diphenylallyl)-N-(1-(4-methoxyphenyl)ethyl)-3,3-diphenylprop-2-en-1-amine], the pEC50 with MPanc-96 cells was 6.04; with HPAC cells it was 6.98; in the assay with Hec50 cells, 8.80; with MOH cells, 6.03; in the assay on MiaPaCa-2 cells, 5.94; with Hec-1A cells it was 6.68.

`CC(NCC=C(c1ccccc1)c1ccccc1)c1ccc(F)cc1` (stereo not shown) [Compound 27, N-(1-(4-fluorophenyl)ethyl)-3,3-diphenylprop-2-en-1-amine]: the results for the inhibition at 4 µM in assay [1] and in assay [2] were 49.3% and 45.2%, respectively.

In the case of `C[C@@H](NC/C=C(/c1ccccc1)c1ccc([N+](=O)[O-])cc1)c1ccccc1` [Compound 49, (R,Z)-3-(4-nitrophenyl)-3-phenyl-N-(1-phenylethyl)prop-2-en-1-amine], the inhibition at 4 µM was 36.8% in assay [1] and 20.1% in assay [2].

For `CCC(NCC=C(c1ccccc1)c1ccccc1)c1ccccc1` (stereo not shown) [Compound 29, 3,3-diphenyl-N-(1-phenylpropyl)prop-2-en-1-amine hydrochloride], the inhibition at 4 µM was 40.3% in assay [1] and 37% in assay [2].

`C[C@@H](NCC=C1c2ccccc2C=Cc2ccccc21)c1ccc(F)cc1` [Compound 58, (R)—N-(2 (5H-dibenzo[a,d][7]annulen-5-ylidene)ethyl)-1-(4-fluorophenyl) ethanamine]: the results for the inhibition at 4 µM in assay [1] and in assay [2] were -78.7% and 5.05%, respectively.

In the case of `COC(=O)[C@@H](NC/C=C/c1ccccc1)c1ccccc1` [Compound 39, (S)-methyl 2-(cinnamylamino)-2-phenylacetate], the inhibition at 4 µM was -10.2% in assay [1] and 6.72% in assay [2].

Turning to `C[C@@H](OC/C=C/c1ccccc1)c1ccccc1` [Compound 24, (R,E)-(1-(cinnamyloxy)ethyl)benzene], the inhibition at 4 µM is 7.19% in assay [1] and 18% in assay [2].

Turning to `COC(=O)[C@@H](NCC=C(c1ccccc1)c1ccccc1)c1ccccc1` [Compound 43, (S)-methyl 2-((3,3-diphenylallyl)amino)-2-phenylacetate], the inhibition at 4 µM came to 38.4% in assay [1] and 30.1% in assay [2].

As for `C[C@@H](NC/C=C(\c1ccccc1)c1ccc([N+](=O)[O-])cc1)c1ccccc1` [Compound 55, (R,E)-3-(4-nitrophenyl)-3-phenyl-N-(1-phenylethyl)prop-2-en-1-amine], the inhibition at 4 µM in assay [1] was -36.6%; in assay [2], 12.3%.

Regarding `CC(NCC=C(c1ccccc1)c1ccccc1)c1ccccc1` (stereo not shown) [Compound 12, 3,3-diphenyl-N-(1-phenylethyl)prop-2-en-1-amine hydrochloride], the inhibition at 4 µM worked out at 55.1% in assay [1] and 37.7% in assay [2].

Regarding `CC(C)=CCC/C(C)=C/CO[C@H](C)c1ccccc1` [Compound 20, (R,E)-(1-((3,7-dimethylocta-2,6-dien-1-yl)oxy)ethyl)benzene], the results for the inhibition at 4 µM in assay [1] and in assay [2] were -5.12% and 14.6%, respectively.

In the case of `C[C@H](NCC=C(c1ccccc1)c1ccccc1)c1ccccc1` [Compound 17, (S)-3,3-diphenyl-N-(1-phenylethyl)prop-2-en-1-amine], the inhibition at 4 µM in assay [1] is -51.9%; in assay [2] it was 8.27%.

In the case of `CC(NCCCc1ccccc1)c1ccccc1` (stereo not shown) [Compound 11, 3-phenyl-N-(1-phenylethyl)propan-1-amine hydrochloride], the inhibition at 4 µM in assay [1] was determined as 42.9%; in assay [2] it was 32.4%.

For `C[C@@H](NCC=C(c1ccccc1)c1ccccc1)c1ccc(Br)cc1` [Compound 44, (R)—N-(1-(4-bromophenyl)ethyl)-3,3-diphenylprop-2-en-1-amine], the inhibition at 4 µM in assay [1] and in assay [2] was 38.1% each time.

Consider `C[C@@H](NC/C=C/c1cccc2ccccc12)c1ccccc1` [Compound 32, (R,E)-3-(naphthalen-1-yl)-N-(1-phenylethyl)prop-2-en-1-amine], for which the inhibition at 4 µM in assay [1] came out at 31.7%; in assay [2], 12.5%.

Regarding `C[C@@H](OCC=C(c1ccccc1)c1ccccc1)c1ccccc1` [Compound 22, (R)-(3-(1-phenylethoxy)prop-1-ene-1,1-diyl)dibenzene], the inhibition at 4 µM in assay [1] is -14.4%; in assay [2] it was 8.14%.
